From ChEMBL document CHEMBL1201862, “PubChem BioAssay data set” (2004)
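Results reflect a 48-hour exposure of cells in 96-well plates to compound at five concentrations. Abbreviation: GI50, concentration required for 50% inhibition of growth.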 The source made the active and inactive calls. Cut-off read from the data, not from the text of the source: active = GI50 up to about 1.1 µM and inactive = higher.

Columns and labels:
Assay in all cases: DTP human tumour cell line panel, 48 h
NCI-H226 = test system: NCI-H226
CAKI-1 = test system: CAKI-1
K562 = test system: K562
HOP-92 = test system: HOP-92
Hs-578T = test system: Hs-578T
UO-31 = test system: UO-31
NCI-H23 = test system: NCI-H23
PC-3 = test system: PC-3
SN12C = test system: SN12C
SF-295 = test system: SF-295
MDA-N = test system: MDA-N
IGROV-1 = test system: IGROV-1
HT-29 = test system: HT-29
TK-10 = test system: TK-10
NCI-H522 = test system: NCI-H522
OVCAR-3 = test system: OVCAR-3
UACC-62 = test system: UACC-62
NCI-H460 = test system: NCI-H460
SF-539 = test system: SF-539
BT-549 = test system: BT-549

With `O=C1Nc2ccccc2/C1=c1\[nH]c(=O)/c(=C\c2ccc(OCc3ccccc3)cn2)[nH]c1=O` the GI50 (NCI-H226) was > 100 µM (inactive), the GI50 (CAKI-1) was 0.303 µM (active) and the GI50 (K562) was 20.4 µM (inactive). For the same molecule, the GI50 (HOP-92) was 26.6 µM (inactive), the GI50 (Hs-578T) was 21.4 µM (inactive) and the GI50 (UO-31) was < 0.01 µM (active). For the same molecule, the GI50 (NCI-H23) was 30.7 µM (inactive), the GI50 (PC-3) was > 100 µM (inactive) and the GI50 (SN12C) was > 100 µM (inactive). For the same molecule, the GI50 (SF-295) was 16.8 µM (inactive), the GI50 (MDA-N) was 83.2 µM (inactive) and the GI50 (IGROV-1) was 47.3 µM (inactive). The GI50 (HT-29) was > 100 µM (inactive), the GI50 (TK-10) was 22.4 µM (inactive) and the GI50 (NCI-H522) was 94.4 µM (inactive). The GI50 (OVCAR-3) was > 100 µM (inactive), the GI50 (UACC-62) was 67 µM (inactive) and the GI50 (NCI-H460) was > 100 µM (inactive). The GI50 (SF-539) was 18.2 µM (inactive).

With `Cc1cc(C(=O)CBr)c(CN2C(=O)c3ccccc3C2=O)c(=O)n1C` the GI50 (NCI-H226) was 49.5 µM (inactive), the GI50 (CAKI-1) was 20.6 µM (inactive) and the GI50 (K562) was 3.19 µM (inactive). The GI50 (Hs-578T) was 15.2 µM (inactive), the GI50 (UO-31) was 18.4 µM (inactive) and the GI50 (NCI-H23) was 80.4 µM (inactive). The GI50 (PC-3) was 17.2 µM (inactive), the GI50 (SN12C) was 17.6 µM (inactive) and the GI50 (SF-295) was 38.5 µM (inactive). The GI50 (IGROV-1) was 26.9 µM (inactive), the GI50 (BT-549) was 18.1 µM (inactive) and the GI50 (HT-29) was 14.2 µM (inactive). For the same molecule, the GI50 (TK-10) was 7.43 µM (inactive), the GI50 (NCI-H522) was 16.1 µM (inactive) and the GI50 (OVCAR-3) was 17.2 µM (inactive). For the same molecule, the GI50 (UACC-62) was 16.6 µM (inactive), the GI50 (NCI-H460) was 26.3 µM (inactive) and the GI50 (SF-539) was 16.2 µM (inactive).

For `Cn1c(=S)sc2nc3ccccc3n2c1=S`, the GI50 (NCI-H226) was 21.4 µM (inactive), the GI50 (CAKI-1) was 14.6 µM (inactive) and the GI50 (K562) was 2 µM (inactive). For the same molecule, the GI50 (HOP-92) was 8.93 µM (inactive), the GI50 (Hs-578T) was 21.6 µM (inactive) and the GI50 (UO-31) was 5.55 µM (inactive). The GI50 (NCI-H23) was 12.4 µM (inactive), the GI50 (PC-3) was 19.6 µM (inactive) and the GI50 (SN12C) was 10.6 µM (inactive). For the same molecule, the GI50 (SF-295) was 18.8 µM (inactive), the GI50 (MDA-N) was 12.6 µM (inactive) and the GI50 (IGROV-1) was 12.8 µM (inactive). For the same molecule, the GI50 (HT-29) was 5.81 µM (inactive), the GI50 (TK-10) was 21.2 µM (inactive) and the GI50 (NCI-H522) was 4.21 µM (inactive). The GI50 (OVCAR-3) was 12.1 µM (inactive), the GI50 (UACC-62) was 11.4 µM (inactive) and the GI50 (NCI-H460) was 9.86 µM (inactive). For the same molecule, the GI50 (SF-539) was 12.8 µM (inactive).

With `NNC1=N/C(=C\c2ccco2)C(=O)N1` the GI50 (NCI-H226) was > 100 µM (inactive), the GI50 (CAKI-1) was > 100 µM (inactive) and the GI50 (K562) was 93.3 µM (inactive). For the same molecule, the GI50 (UO-31) was 59.4 µM (inactive), the GI50 (NCI-H23) was > 100 µM (inactive) and the GI50 (PC-3) was 28.8 µM (inactive). For the same molecule, the GI50 (SN12C) was > 100 µM (inactive), the GI50 (SF-295) was > 100 µM (inactive) and the GI50 (MDA-N) was > 100 µM (inactive). For the same molecule, the GI50 (IGROV-1) was 65.2 µM (inactive), the GI50 (BT-549) was 40.6 µM (inactive) and the GI50 (HT-29) was > 100 µM (inactive). For the same molecule, the GI50 (TK-10) was > 100 µM (inactive), the GI50 (NCI-H522) was 50.6 µM (inactive) and the GI50 (OVCAR-3) was > 100 µM (inactive). For the same molecule, the GI50 (UACC-62) was 33 µM (inactive) and the GI50 (SF-539) was > 100 µM (inactive).

For `COc1c2c(cc3nc4ccccc4nc13)CCC(C(C)(C)O)C2` (stereo not given), the GI50 (NCI-H226) was > 100 µM (inactive), the GI50 (CAKI-1) was > 100 µM (inactive) and the GI50 (K562) was 73.8 µM (inactive). For the same molecule, the GI50 (HOP-92) was 76.2 µM (inactive), the GI50 (UO-31) was 83.2 µM (inactive) and the GI50 (NCI-H23) was 56.8 µM (inactive). For the same molecule, the GI50 (SN12C) was > 100 µM (inactive), the GI50 (SF-295) was > 100 µM (inactive) and the GI50 (IGROV-1) was > 100 µM (inactive). For the same molecule, the GI50 (HT-29) was 66.4 µM (inactive), the GI50 (TK-10) was > 100 µM (inactive) and the GI50 (NCI-H522) was 31.8 µM (inactive). For the same molecule, the GI50 (OVCAR-3) was 49.5 µM (inactive), the GI50 (UACC-62) was > 100 µM (inactive) and the GI50 (NCI-H460) was > 100 µM (inactive). For the same molecule, the GI50 (SF-539) was > 100 µM (inactive).

For `C1CSCC2(COC2)CSCCSCC2(COC2)CS1`, the GI50 (K562) was > 100 µM (inactive), the GI50 (HOP-92) was > 100 µM (inactive) and the GI50 (UO-31) was > 100 µM (inactive). For the same molecule, the GI50 (NCI-H23) was > 100 µM (inactive), the GI50 (PC-3) was > 100 µM (inactive) and the GI50 (SN12C) was > 100 µM (inactive). For the same molecule, the GI50 (SF-295) was > 100 µM (inactive), the GI50 (MDA-N) was > 100 µM (inactive) and the GI50 (IGROV-1) was > 100 µM (inactive). The GI50 (BT-549) was > 100 µM (inactive), the GI50 (HT-29) was > 100 µM (inactive) and the GI50 (TK-10) was > 100 µM (inactive). For the same molecule, the GI50 (NCI-H522) was > 100 µM (inactive), the GI50 (OVCAR-3) was > 100 µM (inactive) and the GI50 (UACC-62) was > 100 µM (inactive). The GI50 (NCI-H460) was > 100 µM (inactive) and the GI50 (SF-539) was > 100 µM (inactive).

With `NCCCN(CCCN)CCCNCc1c2ccccc2c(CNCCCN(CCCN)CCCN)c2ccccc12` the GI50 (NCI-H226) was 72.1 µM (inactive), the GI50 (CAKI-1) was 16.2 µM (inactive) and the GI50 (K562) was 9.42 µM (inactive). The GI50 (HOP-92) was 24.8 µM (inactive), the GI50 (UO-31) was 29.6 µM (inactive) and the GI50 (NCI-H23) was 22.5 µM (inactive). For the same molecule, the GI50 (SN12C) was 15.4 µM (inactive), the GI50 (SF-295) was 12.3 µM (inactive) and the GI50 (IGROV-1) was 11.1 µM (inactive). For the same molecule, the GI50 (HT-29) was 11 µM (inactive), the GI50 (TK-10) was 10.8 µM (inactive) and the GI50 (NCI-H522) was 11.6 µM (inactive). For the same molecule, the GI50 (OVCAR-3) was 19 µM (inactive), the GI50 (UACC-62) was 7.21 µM (inactive) and the GI50 (NCI-H460) was 12 µM (inactive). The GI50 (SF-539) was 14.7 µM (inactive).

In the case of `CC(=O)O[C@H]1CC[C@@]2(C)C(=CC[C@@H]3[C@@H]2CC[C@]2(C)c4nc(Cl)ccc4C[C@@H]32)C1`, the GI50 (NCI-H226) is reported as > 100 µM (inactive), the GI50 (CAKI-1) is reported as 66.4 µM (inactive) and the GI50 (K562) is reported as 31.1 µM (inactive). The GI50 (HOP-92) was 54.7 µM (inactive), the GI50 (UO-31) was 64.6 µM (inactive) and the GI50 (NCI-H23) was 0.867 µM (active). For the same molecule, the GI50 (PC-3) was 50 µM (inactive), the GI50 (SN12C) was 41.7 µM (inactive) and the GI50 (SF-295) was 24.7 µM (inactive). The GI50 (MDA-N) was 29.3 µM (inactive), the GI50 (IGROV-1) was 89.9 µM (inactive) and the GI50 (BT-549) was 15.2 µM (inactive). For the same molecule, the GI50 (HT-29) was 36.8 µM (inactive), the GI50 (TK-10) was 54.3 µM (inactive) and the GI50 (NCI-H522) was 24.5 µM (inactive). The GI50 (OVCAR-3) was 27.9 µM (inactive), the GI50 (UACC-62) was 18.2 µM (inactive) and the GI50 (NCI-H460) was 33.4 µM (inactive).
